Measured values published in patent US20260007666A1 (INAYA THERAPEUTICS, INC., priority 2022, published 2026).

Test: Rat pharmacokinetics, IV imatinib mesylate vs IT imatinib free base/cyclodextrin (Example 9)
Format: in vivo, Sprague Dawley rats
Conditions: IV data, 60 min collection period
Method: Lung tissue and blood were collected for analysis.
Experimental Design and Execution: In brief, after the animals were transferred to study, all animals were randomly assigned to treatment groups per the study design below. Animals were treated either via intravenous (IV) administration of formulation R1, or via intratracheal (IT) administration for formulation R2 of the test article.
Averages for each time point are reported for groups/time points that have a minimum of 2 animals.
The Therapeutic Advantage (Rd) in Table 8 was calculated using the following equation: […]

## Cc1ccc(NC(=O)c2ccc(CN3CCN(C)CC3)cc2)cc1Nc1nccc(-c2cccnc2)n1 [imatinib free base, imatinib]
  tissue distribution lung vs plasma: preferentially accumulates in the lung tissue
